Laboratory results taken from PubChem BioAssay (NCI).
Several values for one entry are separate records, joined by “and”; a condition that tells them apart may be missing. Equal entries are not always repeated.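 1) Cells in 96-well plates. 2) Compound, 48 h, 5 concentrations. 3) Linear interpolation between surrounding doses. 4) Unreached endpoint = highest concentration. GI50 is the concentration that inhibits growth by half. TGI: total growth inhibition.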

Columns and labels:
Assay in all cases: inhibition of tumour cell growth, NCI panel, 48 h
IGROV1 ovarian = tested on: IGROV1 ovarian
PC-3 prostate = tested on: PC-3 prostate
K-562 leukemia = tested on: K-562 leukemia
BT-549 breast = tested on: BT-549 breast
M14 melanoma = tested on: M14 melanoma
COLO 205 colon = tested on: COLO 205 colon
HS 578T breast = tested on: HS 578T breast
SF-268 CNS = tested on: SF-268 CNS
SR leukemia = tested on: SR leukemia
SF-539 CNS = tested on: SF-539 CNS

SMILES | TGI (IGROV1 ovarian) | GI50 (PC-3 prostate) | TGI (PC-3 prostate) | GI50 (K-562 leukemia) | TGI (K-562 leukemia) | GI50 (BT-549 breast) | TGI (BT-549 breast) | GI50 (M14 melanoma) | TGI (M14 melanoma) | GI50 (COLO 205 colon) | TGI (COLO 205 colon) | TGI (HS 578T breast) | GI50 (SF-268 CNS) | TGI (SF-268 CNS) | GI50 (SR leukemia) | TGI (SR leukemia) | GI50 (IGROV1 ovarian) | GI50 (SF-539 CNS) | TGI (SF-539 CNS) | GI50 (HS 578T breast)
CN(C)CC1CCCCCCCCCCC1=O (stereo not given) | > 100 µM | > 100 µM | > 100 µM | > 100 µM | > 100 µM | > 100 µM | > 100 µM | > 100 µM | > 100 µM | > 100 µM | > 100 µM | > 100 µM | > 100 µM | > 100 µM | > 100 µM | > 100 µM | – | – | – | –
COc1ccc(CN[C@H]2CCc3cc(OC)c(OC)c(OC)c3-c3ccc(SC)c(=O)cc32)c(OC)c1OC | > 100 µM | – | – | < 0.01 µM | 1.35 µM | – | – | 0.0102 µM | – | < 0.01 µM | 0.0645 µM and 0.0155 µM | – | 0.0111 µM | – | < 0.01 µM | – | 0.0395 µM | 0.01 µM | 0.0478 µM and 0.0387 µM | –
NC(=O)COc1ccc(Br)cc1Br | > 100 µM | – | – | – | > 100 µM | – | – | – | > 100 µM | – | > 100 µM | – | – | > 100 µM | – | > 100 µM | – | – | > 100 µM | –
COc1ccc2nc(NC(=O)C(=O)C(C#N)c3ccc(CC#N)cc3)sc2c1 (stereo not given) | > 100 µM | – | – | – | > 100 µM | – | – | – | > 100 µM | – | > 100 µM | – | – | > 100 µM | – | – | – | – | > 100 µM | –
COc1cc2ccc(C(=O)O)cc2cc1OC | > 100 µM | – | – | – | > 100 µM | – | – | – | > 100 µM | – | > 100 µM | – | – | > 100 µM | – | – | – | – | > 100 µM | –
Cc1cccc2c1C(=O)OC2(c1cccc2ccccc12)c1cccc2ccccc12 | > 100 µM | – | – | – | > 100 µM | – | – | – | > 100 µM | – | > 100 µM | – | – | > 100 µM | – | > 100 µM | – | – | – | –
CCOc1c(Cc2ccccc2)c(=O)n2c3ccccc3n3c(=O)n(C)c(=O)c1c23 | > 100 µM | – | – | – | – | – | – | – | > 100 µM | – | > 100 µM | – | – | > 100 µM | – | > 100 µM | – | – | > 100 µM | –
O=C1/C(=C/c2ccccc2)CN(C(=O)Oc2ccccc2)C/C1=C\c1ccccc1 | 83.2 µM | – | – | – | 22.1 µM | – | – | – | > 100 µM | – | > 100 µM | – | – | > 100 µM | – | – | – | – | 22.3 µM | –
CCc1cc2c(c3[nH]ccc13)[C@@H](C)C[C@H]2C | 36.2 µM | – | – | – | 45 µM | – | – | – | 34.4 µM | – | 38.1 µM | – | – | – | – | – | – | – | – | –
CC(C)N(C(=O)C12C3C4C5C3C1(C(=O)N(C(C)C)C(C)C)C5C42)C(C)C (stereo not given) | > 100 µM | – | – | – | > 61.5 µM | – | – | – | > 100 µM | – | > 60.6 µM | – | – | > 100 µM | – | 38.7 µM | – | – | > 100 µM | –
CC(=O)[O-].CC(=O)[O-].CC(=O)[O-].CC(=O)[O-].CO.CO.CO.[Rh+2].[Rh+2].c1ccc(-c2ccccn2)nc1 | > 100 µM | – | – | – | – | – | – | > 100 µM | > 100 µM | > 100 µM | > 100 µM | – | > 100 µM | > 100 µM | > 100 µM | > 100 µM | > 100 µM | > 100 µM | > 100 µM | –
CC(C)S(=O)(=O)ON1C(=O)c2ccc([N+](=O)[O-])cc2C1=O | > 100 µM | – | – | – | > 100 µM | – | – | – | > 100 µM | – | > 100 µM | – | – | > 100 µM | – | > 100 µM | – | – | > 100 µM | –
COC(=O)C([O][Ge]([CH3])([CH3])[CH3])c1ccccc1 (stereo not given) | > 100 µM | – | – | > 100 µM | > 100 µM | – | – | > 100 µM | > 100 µM | > 100 µM | > 100 µM | – | > 100 µM | > 100 µM | – | – | > 100 µM | > 100 µM | > 100 µM | –
CCCN(CCC)c1c([N+](=O)[O-])cc(C(N)=O)cc1[N+](=O)[O-] | > 100 µM | – | – | – | > 100 µM | – | – | – | > 100 µM | – | > 100 µM | – | – | > 100 µM | – | – | – | – | > 100 µM | –
CC1(C)CC(=O)C=C(NC(=O)c2ccccc2)C1 | > 100 µM | – | – | – | > 100 µM | – | – | – | > 100 µM | – | > 100 µM | – | – | > 100 µM | – | – | – | – | > 100 µM | –
CCN(CC)Cc1cc(Nc2c3ccc(Cl)cc3nc3c(C)cccc23)ccc1O | 1.78 µM | 1.55 µM | 3.1 µM | 1.16 µM | 5.48 µM | 1.92 µM | 3.51 µM | 1.69 µM | 3.11 µM | 1.23 µM | 2.6 µM | 4.57 µM | 1.53 µM | 3.09 µM | – | – | 0.56 µM | 1.73 µM | 3.12 µM | 1.92 µM
Cc1c(-c2ccnc(N)n2)c2c(n1-c1ccccc1)C(=O)c1ccccc1C2=O | 39 µM | > 100 µM | > 100 µM | 3.78 µM | 25.5 µM | 6.3 µM | 29.9 µM | 46.8 µM | > 100 µM | 44 µM | > 100 µM | 60.8 µM | – | – | 1.01 µM | 3.84 µM | 4.86 µM | – | – | 22.4 µM
CCC[CH2][Sn]1([CH2]CCC)[O]N=Cc2ccccc2[O]1 | 2.25 µM | – | – | 0.192 µM | 1.33 µM | – | – | 0.78 µM | 2.09 µM | 0.713 µM | 1.96 µM | – | – | – | 0.342 µM | 2.75 µM | 1.03 µM | 1.17 µM | 2.43 µM | –
Clc1cc(-c2csc(Cl)c2)cs1 | > 100 µM | – | > 100 µM | – | – | – | – | – | > 100 µM | – | > 100 µM | > 100 µM | – | > 100 µM | – | > 100 µM | – | – | > 100 µM | –
CC1CCCc2c(CC3CC(=O)NC(=O)C3)nc(N)nc21 (stereo not given) | > 100 µM | – | > 100 µM | – | > 100 µM | – | > 100 µM | – | > 100 µM | – | > 100 µM | – | – | > 100 µM | – | > 100 µM | – | – | > 100 µM | –
c1ccc2c(Nc3ccc4c(c3)OCO4)c3ccoc3nc2c1 | > 100 µM | 18.9 µM | 95.5 µM | 3.27 µM | 27.8 µM | – | – | 14.3 µM | 29.8 µM | 20.2 µM | > 100 µM | > 100 µM | 15.6 µM | 51.6 µM | 3.98 µM | 29.3 µM | 31.5 µM | – | – | > 100 µM
O=C1CCC(=O)C(C(=O)CCC(=O)Nc2ccc(Cl)cc2)C1 (stereo not given) | > 100 µM | – | – | – | > 100 µM | – | – | – | > 100 µM | – | > 100 µM | – | – | > 100 µM | – | – | – | – | > 100 µM | –
O=C1NC(=Nc2ccccc2Cl)SC1C(=O)Nc1ccc([N+](=O)[O-])cc1[N+](=O)[O-] (stereo not given) | > 100 µM | – | – | – | > 100 µM | – | – | – | > 100 µM | – | > 100 µM | – | – | > 100 µM | – | > 100 µM | – | – | > 100 µM | –
